Measured values reported in the supplement of paper PMC10307832.

Experiments:
Assay in all cases: relative viability (nuclei count vs DMSO), 5 days (fraction); higher = more cells survive
[1] = compound: CCC1=CN=CN=C1N2CCN(CC2)CC3=NC4=C(N3)C=C(C=C4)C(F)(F)F + NC(=O)Nc1cc(-c2cccc(F)c2)sc1C(=O)N[C@H]1CCCNC1 [AZD7762] (partner 0.2 µM)
Method in brief: (§1)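 Relative viability was taken as the ratio of nuclei in treated wells to nuclei in vehicle wells. Lung cancer cell lines in 1536-well plates received compounds by pin tool one day after seeding, either one drug alone or a fixed anchor-drug dose plus five library-drug doses (not always all listed) in √10 steps. Nuclei were counted on 4× images after 5 days of treatment, and values are medians of duplicate plates.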

[2] = compound: CCC1=CN=CN=C1N2CCN(CC2)CC3=NC4=C(N3)C=C(C=C4)C(F)(F)F + O=C(c1cc(Cc2n[nH]c(=O)c3ccccc23)ccc1F)N1CCN(C(=O)C2CC2)CC1 [Olaparib] (partner 8 µM)
Method in brief: as §1

[3] = compound: CCn1c(-c2nonc2N)nc2cnc(Oc3cccc(NC(=O)c4ccc(OCCN5CCOCC5)cc4)c3)cc21 + O=C(CCCCCCC(=O)Nc1ccccc1)NO [Vorinostat] (partner 1 µM)
Method in brief: as §1

[4] = compound: CCC1=CN=CN=C1N2CCN(CC2)CC3=NC4=C(N3)C=C(C=C4)C(F)(F)F + O=C(CCCCCCC(=O)Nc1ccccc1)NO [Vorinostat] (partner 1 µM)
Method in brief: as §1

With NCI-H2126 as the cell line, how does the relative viability ([1]; first compound 0.04 µM) read?
Its relative viability is 0.97.

What about the relative viability ([1]; first compound 0.1265 µM) of the same cell line?
Its relative viability is 1.02.

And the relative viability ([1]; first compound 0.4 µM)?
The relative viability was 0.957.

What about the relative viability ([1]; first compound 1.265 µM) of the same cell line?
The relative viability was 1.02.

What about the relative viability ([1]; first compound 4 µM) of the same cell line?
Its relative viability is 1.17.

What about the relative viability ([2]; first compound 0.04 µM) of the same cell line?
Its relative viability is 0.913.

What about the relative viability ([2]; first compound 0.1265 µM) of the same cell line?
Its relative viability is 0.877.

What about the relative viability ([2]; first compound 0.4 µM) of the same cell line?
The relative viability was 0.856.

What about the relative viability ([2]; first compound 1.265 µM) of the same cell line?
The relative viability was 0.927.

And the relative viability ([2]; first compound 4 µM)?
Its relative viability is 0.901.

And the relative viability ([3]; first compound 0.04 µM)?
Its relative viability is 1.04.

What about the relative viability ([3]; first compound 0.1265 µM) of the same cell line?
Its relative viability is 0.879.

And the relative viability ([3]; first compound 0.4 µM)?
The relative viability was 0.608.

What about the relative viability ([3]; first compound 1.265 µM) of the same cell line?
The relative viability was 0.894.

And the relative viability ([3]; first compound 4 µM)?
The relative viability was 0.82.

And the relative viability ([4]; first compound 0.04 µM)?
The relative viability was 0.794.

And the relative viability ([4]; first compound 0.1265 µM)?
The relative viability was 0.781.

And the relative viability ([4]; first compound 0.4 µM)?
The relative viability was 0.766.

And the relative viability ([4]; first compound 1.265 µM)?
Its relative viability is 0.595.

And the relative viability ([4]; first compound 4 µM)?
The relative viability was 0.742.

Which relative viability ([1]; first compound 0.04 µM) does the source give for LOU-NH91 here?
The relative viability was 0.758.

What about the relative viability ([1]; first compound 0.1265 µM) of the same cell line?
The relative viability was 0.743.

And the relative viability ([1]; first compound 0.4 µM)?
Its relative viability is 0.72.

And the relative viability ([1]; first compound 1.265 µM)?
Its relative viability is 0.634.

What about the relative viability ([1]; first compound 4 µM) of the same cell line?
Its relative viability is 0.831.

And the relative viability ([2]; first compound 0.04 µM)?
Its relative viability is 0.892.

What about the relative viability ([2]; first compound 0.1265 µM) of the same cell line?
The relative viability was 0.951.

And the relative viability ([2]; first compound 0.4 µM)?
Its relative viability is 0.898.

And the relative viability ([2]; first compound 1.265 µM)?
Its relative viability is 0.896.

And the relative viability ([2]; first compound 4 µM)?
Its relative viability is 0.94.

What about the relative viability ([3]; first compound 0.04 µM) of the same cell line?
Its relative viability is 1.06.

What about the relative viability ([3]; first compound 0.1265 µM) of the same cell line?
The relative viability was 0.824.

What about the relative viability ([3]; first compound 0.4 µM) of the same cell line?
The relative viability was 0.661.

What about the relative viability ([3]; first compound 1.265 µM) of the same cell line?
Its relative viability is 0.529.

What about the relative viability ([3]; first compound 4 µM) of the same cell line?
The relative viability was 0.548.

What about the relative viability ([4]; first compound 0.04 µM) of the same cell line?
The relative viability was 0.842.

What about the relative viability ([4]; first compound 0.1265 µM) of the same cell line?
Its relative viability is 0.907.

And the relative viability ([4]; first compound 0.4 µM)?
The relative viability was 0.927.

What about the relative viability ([4]; first compound 1.265 µM) of the same cell line?
The relative viability was 0.76.

What about the relative viability ([4]; first compound 4 µM) of the same cell line?
Its relative viability is 0.993.

Which relative viability ([1]; first compound 0.04 µM) does the source give for NCI-H1651 here?
Its relative viability is 0.452.

What about the relative viability ([1]; first compound 0.1265 µM) of the same cell line?
The relative viability was 0.433.

And the relative viability ([1]; first compound 0.4 µM)?
The relative viability was 0.436.

What about the relative viability ([1]; first compound 1.265 µM) of the same cell line?
The relative viability was 0.484.

And the relative viability ([1]; first compound 4 µM)?
Its relative viability is 0.524.

What about the relative viability ([2]; first compound 0.04 µM) of the same cell line?
Its relative viability is 0.206.

What about the relative viability ([2]; first compound 0.1265 µM) of the same cell line?
The relative viability was 0.179.

What about the relative viability ([2]; first compound 0.4 µM) of the same cell line?
Its relative viability is 0.175.

What about the relative viability ([2]; first compound 1.265 µM) of the same cell line?
Its relative viability is 0.19.

What about the relative viability ([2]; first compound 4 µM) of the same cell line?
Its relative viability is 0.17.

And the relative viability ([3]; first compound 0.04 µM)?
The relative viability was 0.604.

What about the relative viability ([3]; first compound 0.1265 µM) of the same cell line?
Its relative viability is 0.639.

What about the relative viability ([3]; first compound 0.4 µM) of the same cell line?
Its relative viability is 0.467.

What about the relative viability ([3]; first compound 1.265 µM) of the same cell line?
Its relative viability is 0.292.

And the relative viability ([3]; first compound 4 µM)?
Its relative viability is 0.497.

And the relative viability ([4]; first compound 0.04 µM)?
The relative viability was 0.615.

What about the relative viability ([4]; first compound 0.1265 µM) of the same cell line?
Its relative viability is 0.56.

What about the relative viability ([4]; first compound 0.4 µM) of the same cell line?
The relative viability was 0.542.

What about the relative viability ([4]; first compound 1.265 µM) of the same cell line?
Its relative viability is 0.506.

And the relative viability ([4]; first compound 4 µM)?
The relative viability was 0.584.

NCI-H460 was tested. Which relative viability ([1]; first compound 0.04 µM) did it give?
Its relative viability is 0.622.

What about the relative viability ([1]; first compound 0.1265 µM) of the same cell line?
The relative viability was 0.528.

What about the relative viability ([1]; first compound 0.4 µM) of the same cell line?
Its relative viability is 0.619.

And the relative viability ([1]; first compound 1.265 µM)?
Its relative viability is 0.578.

What about the relative viability ([1]; first compound 4 µM) of the same cell line?
The relative viability was 0.6.

What about the relative viability ([2]; first compound 0.04 µM) of the same cell line?
The relative viability was 0.521.

And the relative viability ([2]; first compound 0.1265 µM)?
Its relative viability is 0.423.

What about the relative viability ([2]; first compound 0.4 µM) of the same cell line?
The relative viability was 0.404.

What about the relative viability ([2]; first compound 1.265 µM) of the same cell line?
Its relative viability is 0.368.

And the relative viability ([2]; first compound 4 µM)?
Its relative viability is 0.399.

What about the relative viability ([3]; first compound 0.04 µM) of the same cell line?
Its relative viability is 0.952.

And the relative viability ([3]; first compound 0.1265 µM)?
Its relative viability is 0.729.

And the relative viability ([3]; first compound 0.4 µM)?
Its relative viability is 0.471.

What about the relative viability ([3]; first compound 1.265 µM) of the same cell line?
The relative viability was 0.189.

What about the relative viability ([3]; first compound 4 µM) of the same cell line?
The relative viability was 0.107.

What about the relative viability ([4]; first compound 0.04 µM) of the same cell line?
The relative viability was 0.819.

And the relative viability ([4]; first compound 0.1265 µM)?
Its relative viability is 0.69.

What about the relative viability ([4]; first compound 0.4 µM) of the same cell line?
The relative viability was 0.708.

And the relative viability ([4]; first compound 1.265 µM)?
The relative viability was 0.684.

And the relative viability ([4]; first compound 4 µM)?
Its relative viability is 0.672.
